Tested on: Bacillus cereus, Staphylococcus aureus, Pseudomonas aeruginosa, Escherichia coli, Aspergillus flavus, Chrysosporium keratinophilum
Assay: agar plate disc-diffusion antimicrobial test
Assay type: cell-based
Conditions: discs wetted with 10 μL of 10 mg/mL in DMSO; 37° C., 48 h, 72 h for fungi; gram positive and gram-negative bacteria and fungi
Procedure: The agar plate disc-diffusion method was applied. Sterilized filter papers (6 mm in diameter) were wetted with 10 μL of a solution of N′-(2-naphthoyloxy)-2-(benzo[d]oxazol-2-yl)acetimidamide (3) to be tested, containing 10 mg/mL in DMSO, and the discs were allowed to air dry. The discs were then placed onto the surface of agar plates (nutrient agar for bacteria and Sabouraud's dextrose agar for fungi) seeded with the test organism. Each plate contained 15 mL of the agar medium, previously seeded with 0.2 mL of the broth culture of each organism pregrown for 18 hours. The plates were incubated at 37° C. for 48 h, and 72 h for fungi. The inhibition zones were measured in mm. Discs impregnated with DMSO were used as a control, and its inhibition zone was subtracted from the tested compound actual inhibition zone. […] The antibacterial activity was screened against gram positive bacteria namely Bacillus cereus and Staphylococcus aureus and gram-negative bacterial strains namely Pseudomonas aeruginosa and Escherichia coli, while the antifungal activity was screened against Aspergillus flavus and Chrysosporium keratinophilum.

With `N/C(Cc1nc2ccccc2o1)=N\OC(=O)c1ccc2ccccc2c1` [compound 3, N′-(2-naphthoyloxy)-2-(benzo[d]oxazol-2-yl)acetimidamide] the “antimicrobial activity (disc-diffusion inhibition zones)” value was “high antimicrobial activities”.
